Source: patent US20030231978A1, “Indoor air quality and antiseptic composition for use therein” (priority 2002, published 2003)
Entries after “also recorded” stand apart in the source; their conditions may differ. Like-named read-outs stand apart in the source and are kept apart here.

Tests used:
[1] = tested on: H. pylori; conditions: cited from earlier work
[2] = Solution and suspension levels of terpenes in water
Excerpt: The terpene and water were blended in a household blender for 30 seconds.
Examples of these levels are as follows.

[3] = tested on: E. coli; conditions: cited from earlier work
[4] = tested on: human erythrocytes
[5] = Potency decay / breakdown of terpenes in presence of oxygen; type: physicochemical; conditions: 500 ppm solution
Excerpt: Terpenes will break down in the presence of oxygen. Citral, for example, is an aldehyde and will decay (oxygenate) over a period of days.

[6] = tested on: Mycoplasma pneumoniae; assay: Effectiveness against Mycoplasma pneumoniae (color change of SP4 medium); type: cell-based; conditions: 40 hours treatment
Experimental: Terpene beta-ionone or L-carvone was first mixed well with Tween® 80 to have a final Tween® 80 concentration of 5 vol %. This mixture was then used to make concentrations of 2500 ppm in sterile phosphate buffer saline (PBS) by blending the mixture in PBS for 40 seconds. This 2500 ppm solution was then diluted to 500 ppm, 250 ppm, and 125 ppm with PBS.
PBS containing 25 ppm Tween® 80 or PBS alone was used to treat cells suspension as controls.
A log phase (2-3 -day old) culture of Mycoplasma pneumoniae was mixed with each of the above three concentrations of terpene at 1:1 (volume) ratio (in this case, I mL of cell suspension was added to 1 mL of terpene).
The culture and terpene mixture was then incubated at 37° C. for 40 hours. After 40 hours of treatment, 10-fold serial dilution was performed to 10 (−10) by first taking 0.1 mL of the treated culture suspension was added into 0.9 mL of fresh SP4 (Whitcomb (1983); SP4 media is commercially available (Remel, Lenexa, Kans., USA)). All the tubes were then incubated at 37° C., and a color change of the medium was used for the indication of the cells that either were killed or survived from the treatment. Color change was from red to yellow because Mycoplasma pneumoniae produces acid during its growth.
All the treatments were performed in duplicate.

[7] = tested on: Third stage (L3) Dirofilaria immitis larvae; assay: In-vitro larvacidal effect; type: cell-based
Experimental: Third stage (L3) Dirofilaria immitis larvae were suspended at a concentration of 85 larvae/ml. Larvae were deposited on plates with wells containing b-ionone at a concentration of 5 μM, 50 μM, and 750 μM, Tween® 80, and control media.
Plates were incubated at 37° C., 95% relative humidity (RH), and 5% CO2 for 6 days.
After incubation all wells were evaluated for appearance, motility, and molting to stage four (L4) at 24, 48, 72 hours, and 6 days.

[8] = in water without surfactant, high-shear blending

CC(C)=CCC/C(C)=C/CO [Geraniol]
Concentration that inhibited the growth of H. pylori in vitro [1]: 2 mg/L | Solution levels for various terpenes (maximum level solubilized) [2]: 500 ppm

CC(C)=CCCC(C)=CC=O [Citral, 3,7-dimethyl-2,6-octadien-1-al]
Citral in growth media that reduced the concentration of E. coli [3]: more than 0.01% | Citral in growth media with bactericidal effect [3]: 0.08% | Concentration that will lyse human erythrocytes [4]: about 1000 ppm | Time to lose half its potency [5]: 2-3 weeks | Level up to which a stable suspension of citral can be formed [2]: up to 2500 ppm | Level up to which citral forms a solution in water ([2]; true solution, high shear mixing, no surfactant): up to 1000 ppm

L-carvone
Color change of the first tube three days after the 10-fold dilution (killing effect) ([6]; 62.5 ppm, 125 ppm and 250 ppm): no killing effects | Color change of the second and third tube 6 days after the 10-fold dilution ([6]; 62.5 ppm, 125 ppm and 250 ppm): changed color

C=C(C)C1CC=C(C)C(=O)C1 (stereo not shown) [Carvone]
Solution levels for various terpenes (maximum level solubilized) [2, 8]: 500 ppm

Terpeniol
Solution levels for various terpenes (maximum level solubilized) [2, 8]: 500 ppm

CC(=O)/C=C/C1=C(C)CCCC1(C)C [b-ionone]
Survival, motility and molting of larvae ([7]; 5 μM): no effect on the larvae | Survival, motility and molting of larvae ([7]; 50 μM, 6 day assay): decreased survivability, motility, and molting; also recorded: Most larvae were dead by 6 days and none molted | Survival, motility and molting of larvae ([7]; 750 μM): all larvae were dead or moribund within 24 hours | Color change of the first tube three days after the 10-fold dilution (killing effect) ([6]; 62.5 ppm, 125 ppm and 250 ppm): did not change color at all indicating a killing effect | Color change of tubes 6 days after the 10-fold dilution ([6]; 62.5 ppm): only the first tube of 62.5 ppm beta-ionone changed color | Killing of cells, 6 days after the 10-fold dilution ([6]; 125 and 250 ppm): may have completely killed all cells in 40 hours | Solution levels for various terpenes (maximum level solubilized) [2, 8]: 500 ppm
